Experimental data from the NIST ThermoML archive (doi:10.1016/j.jct.2016.09.005).

Details: 5500 kPa, Brillouin Light Scattering

CCCCCC [hexane]
speed of sound [m/s]
Details | 300.09 K | 353.12 K | 403.17 K | 453.15 K | 503.13 K | 547.89 K | 578.22 K | 608.05 K | 636.04 K
Fluid (supercritical or subcritical phases) | – | – | – | – | – | 158.25 | 154.04 | 178.03 | 194.98
Liquid | 1111.2 | 898.5 | 705.9 | 513 | 323.7 | – | – | – | –
